US6274715A, “Tricyclic erythromycin derivatives” (priority 1997, dated 2001)
Converted amounts (≈) assume the structure as drawn.

How the values were obtained:
Format in all cases: cell-based
PSEUDOMONAS CEPACIA 296I = assay: In vitro antibacterial activity, MIC, BHI agar dilution; settings: P. cepacia 296I, unit assumed
[1] = system: STREPTOCOCCUS PYOGENES 930; assay: as above
[2] = system: STREPTOCOCCUS BOVIS A-5169; assay: as above; settings: S. bovis A-5169, unit assumed
M[…] ATCC 9341 = assay: as above; settings: M. luteus ATCC 9341, unit assumed
Procedure: (§1) Representative compounds of the present invention were assayed in vitro for antibacterial activity as follows: Twelve petri dishes containing successive aqueous dilutions of the test compound mixed with 10 mL of sterilized Brain Heart Infusion (BHI) agar (Difco 0418-01-5) were prepared. Each plate was inoculated with 1:100 (or 1:10 for slow-growing strains, such as Micrococcus and Streptococcus) dilutions of up to 32 different microorganisms, using a Steers replicator block. The inoculated plates were incubated at 35-37° C. for 20 to 24 hours. In addition, a control plate, using BHI agar containing no test compound, was prepared and incubated at the beginning and end of each test.
(§2) An additional plate containing a compound having known susceptibility patterns for the organisms being tested and belonging to the same antibiotic class as the test compound was also prepared and incubated as a further control, as well as to provide test-to-test comparability. Erythromycin A was used for this purpose.
(§3) After incubation, each plate was visually inspected. The minimum inhibitory concentration (MIC) was defmed as the lowest concentration of drug yielding no growth, a slight haze, or sparsely isolated colonies on the inoculum spot as compared to the growth control.

M[…] ATCC 4698 = assay: as above; settings: M. luteus ATCC 4698, unit assumed
Procedure: as §1, §2, §3

EN[…] ATCC 8043 = assay: as above; settings: E. faecium ATCC 8043, unit assumed
Procedure: as §1, §2, §3

STR[…] 508 = assay: as above
Procedure: as §1, §2, §3

[3] = system: PSEUDOMONAS AERUGINOSA DPHD-5263; assay: as above; settings: P. aeruginosa DPHD-5263, unit assumed
ESCHERICHIA COLI DC-2 = assay: as above; settings: E. coli DC-2, unit assumed
ESCHERICHIA COLI KNK 437 = settings: E. coli KNK 437; BHI agar; unit assumed
[4] = system: PSEUDOMONAS AERUGINOSA 5007; assay: In vitro antibacterial activity, MIC, BHI agar dilution; settings: P. aeruginosa 5007, unit assumed
[5] = system: MYCOBACTERIUM SMEGMATIS ATCC 114; assay: as above; settings: M. smegmatis ATCC 114, unit assumed
[6] = system: KLEBSIELLA PNEUMONIAE ATCC 8045; assay: as above; settings: K. pneumoniae ATCC 8045, unit assumed
[7] = system: PSEUDOMONAS AERUGINOSA DPHD-2862; assay: as above; settings: P. aeruginosa DPHD-2862, unit assumed
[8] = system: STAPHYLOCOCCUS AUREUS CMX 553; assay: as above; settings: S. aureus CMX 553, unit assumed
[9] = system: STAPHYLOCOCCUS AUREUS CMX 642A; assay: as above; settings: S. aureus CMX 642A, unit assumed
[10] = system: PROVIDENCIA STUARTII CMX 640; settings: P. stuartii CMX 640; BHI agar; unit assumed
[11] = system: STREPTOCOCCUS PYOGENES PIU 2548; assay: In vitro antibacterial activity, MIC, BHI agar dilution; settings: S. pyogenes PIU 2548, unit assumed
[12] = system: STAPHYLOCOCCUS AUREUS A-5278; assay: as above; settings: S. aureus A-5278, unit assumed
[13] = system: PSEUDOMONAS AERUGINOSA K799/WT; assay: as above; settings: P. aeruginosa K799/WT, unit assumed
ESCHERICHIA COLI SS = assay: as above; settings: E. coli SS
ESCHERICHIA COLI JUHL = settings: E. coli JUHL; BHI agar; unit assumed
CANDIDA ALBICANS CCH 442 = assay: In vitro antibacterial activity, MIC, BHI agar dilution
[14] = system: ENTEROBACTER AEROGENES ATCC 13048; assay: as above; settings: E. aerogenes ATCC 13048, unit assumed
[15] = system: STREPTOCOCCUS PYOGENES EES61; assay: as above
[16] = system: PSEUDOMONAS AERUGINOSA BMH10; assay: as above; settings: P. aeruginosa BMH10, unit assumed
ESCHERICHIA COLI H560 = assay: as above; settings: E. coli H560, unit assumed
[17] = system: STAPHYLOCOCCUS EPIDERMIDIS 3519; settings: S. epidermidis 3519; BHI agar; unit assumed
[18] = system: STAPHYLOCOCCUS AUREUS 1775; assay: In vitro antibacterial activity, MIC, BHI agar dilution; settings: S. aureus 1775, unit assumed
[19] = system: PSEUDOMONAS AERUGINOSA K799/61; assay: as above; settings: P. aeruginosa K799/61, listed as Ex 148, unit assumed

In the case of CCC1OC(=O)C(C)C(=O)C(C)C(OC2OC(C)CC(N(C)C)C2O)C(C)(OC)CC(C)C2=NCC(C)(CN(C)C)N3C(=O)OC1(C)C3C2C (stereo not shown) [Example 136], the MIC (PSEUDOMONAS CEPACIA 296I) was greater than 100 µg/mL, the MIC ([1]; S. pyogenes 930, unit assumed) was greater than 100 µg/mL and the MIC [2] was 0.02 µg/mL (≈ 0.0282 µM). It also gave an MIC (M[…] ATCC 9341) of 0.1 µg/mL (≈ 0.141 µM), an MIC (M[…] ATCC 4698) of 0.78 µg/mL (≈ 1.1 µM) and an MIC (EN[…] ATCC 8043) of 0.2 µg/mL (≈ 0.282 µM). The MIC (STR[…] 508; S. agalactiae CMX 508, unit assumed) was 0.1 µg/mL (≈ 0.141 µM), the MIC [3] was greater than 100 µg/mL and the MIC (ESCHERICHIA COLI DC-2) was greater than 100 µg/mL. The MIC (ESCHERICHIA COLI KNK 437) was greater than 100 µg/mL, the MIC [4] was greater than 100 µg/mL and the MIC [5] was 6.2 µg/mL (≈ 8.75 µM). The MIC [6] was greater than 100 µg/mL, the MIC [7] was greater than 100 µg/mL and the MIC [8] was 1.56 µg/mL (≈ 2.2 µM). For the same compound, the MIC [9] was 1.56 µg/mL (≈ 2.2 µM), the MIC [10] was greater than 100 µg/mL and the MIC [11] was 1.56 µg/mL (≈ 2.2 µM). The MIC [12] was greater than 100 µg/mL, the MIC [13] was greater than 100 µg/mL and the MIC (ESCHERICHIA COLI SS; unit assumed) was 0.78 µg/mL (≈ 1.1 µM). For the same compound, the MIC (ESCHERICHIA COLI JUHL) was 100 µg/mL (≈ 141 µM), the MIC (CANDIDA ALBICANS CCH 442; C. albicans CCH 442, unit assumed) was greater than 100 µg/mL and the MIC [14] was greater than 100 µg/mL. It also gave an MIC ([15]; S. pyogenes EES61, unit assumed) of 0.1 µg/mL (≈ 0.141 µM), an MIC [16] greater than 100 µg/mL and an MIC (ESCHERICHIA COLI H560) of 100 µg/mL (≈ 141 µM). The MIC [17] was 1.56 µg/mL (≈ 2.2 µM) and the MIC [18] was greater than 100 µg/mL.
In the case of CC[C@H]1OC(=O)[C@H](C)C(=O)[C@H](C)[C@@H](O[C@@H]2O[C@H](C)C[C@H](N(C)C)[C@H]2O)[C@](C)(OC)C[C@@H](C)C2=NC(COCc3ccc(Cl)cc3)C(COCc3ccc(Cl)cc3)N3C(=O)O[C@@]1(C)[C@H]3[C@H]2C (stereo partly shown) [Example 148], the MIC ([1]; S. pyogenes 930, listed as Ex 148, unit assumed) was 6.2 µg/mL (≈ 6.55 µM), the MIC [2] was 0.2 µg/mL (≈ 0.211 µM) and the MIC (M[…] ATCC 4698) was 1.56 µg/mL (≈ 1.65 µM). For the same compound, the MIC (EN[…] ATCC 8043) was 0.78 µg/mL (≈ 0.824 µM), the MIC (STR[…] 508; S. agalactiae CMX 508, listed as Ex 148, unit assumed) was 0.39 µg/mL (≈ 0.412 µM) and the MIC [19] was 25 µg/mL (≈ 26.4 µM). It also gave an MIC [11] of 3.1 µg/mL (≈ 3.27 µM), an MIC [12] of 12.5 µg/mL (≈ 13.2 µM) and an MIC (ESCHERICHIA COLI SS; listed as Ex 148, unit assumed) of 25 µg/mL (≈ 26.4 µM). The MIC (CANDIDA ALBICANS CCH 442; C. albicans CCH 442, listed as Ex 148, unit assumed) was greater than 100 µg/mL and the MIC ([15]; S. pyogenes EES61, listed as Ex 148, unit assumed) was 0.2 µg/mL (≈ 0.211 µM).
